pIC50: −log10 of the molar value. Structures can show the parent of a compound that is named as a salt. Where two headings read alike, the source gives them in different places.

In series [1] the target is T1, Mouse inducible nitric oxide synthase (miNOS) (Mus musculus, UniProt P29477).
T1 construct: prepared from an extract of LPS-treated RAW 264.7 cells and partially purified by DEAE-Sepharose chromatography; endogenous in cells; host or cells: LPS-treated RAW 264.7 cells (mouse macrophage line)
The series can be described thus: biochemical. The note with it: for iNOS, % @ 10 μM: 10 μM compound; for pIC50: read-out: iNOS.
Protocol: Nitric oxide synthase activity was measured by monitoring the conversion of [3H]-arginine to [3H]-citrulline. Mouse inducible nitric oxide synthase (miNOS) was prepared from an extract of LPS-treated RAW 264.7 cells and partially purified by DEAE-Sepharose chromatography. […] Enzyme and inhibitors were incubated at 37° C. for 15 minutes in a reaction volume of 100 mL with the following components added to start the reaction: 50 mM Tris (pH 7.6), 1 mg/ml bovine serum albumin, 1 mM DTT, 2 mM CaCl2, 10 mM FAD, 10 mM tetrahydrobiopterin, 30 mM L-arginine containing L-[2,3-3H]-arginine at 300 cpm/pmole and 1 mM NADPH. […] The reaction was terminated by addition of cold stop buffer containing 10 mM EGTA, 100 mM HEPES, pH 5.5 and 1 mM citrulline. [3H]-Citrulline was separated by chromatography on Dowex 50W X-8 cation exchange resin and radioactivity determined with a liquid scintillation counter.

In series [2] the test system is intracellular iNOS in LPS-induced RAW 264.7 cells. As to the kind of experiment: Raw cell nitrite assay. The format is cell-based. As to conditions: Mus musculus, read-out: Raw Cell IC50. As for the experimental part: RAW 264.7 cells are plated to confluency on a 96-well tissue culture plate grown overnight (17h) in the presence of LPS to induce NOS. […] The media was removed from each well and the cells are washed twice with Krebs-Ringers-Hepes (25 mM, pH 7.4) with 2 mg/ml glucose. The cells are then placed on ice and incubated with […] of buffer containing L-arginine (30 mM) +/− inhibitors for 1 h. The assay is initiated by warming the plate to 37° C. in a water bath for 1 h. […] To terminate the cellular assay, the plate of cells is placed on ice and the nitrite-containing buffer removed and analyzed for nitrite using a previously published fluorescent determination for nitrite. […] All values are the average of triplicate wells and are compared to a background-subtracted induced set of cells (100% value).

In series [3] the target is T2, Rat brain constitutive nitric oxide synthase (rnNOS) (Rattus norvegicus, UniProt P29476).
T2 construct: prepared from an extract of rat cerebellum and partially purified by DEAE-Sepharose chromatography; from tissue; host or cells: rat cerebellum
As to the kind of experiment: Citrulline assay for nitric oxide synthase (cNOS). The format is biochemical. As for the experimental part:
Nitric oxide synthase activity was measured by monitoring the conversion of [3H]-arginine to [3H]-citrulline. Mouse inducible nitric oxide synthase (miNOS) was prepared from an extract of LPS-treated RAW 264.7 cells and partially purified by DEAE-Sepharose chromatography. Rat brain constitutive nitric oxide synthase (rnNOS) was prepared from an extract of rat cerebellum and partially purified by DEAE-Sepharose chromatography. Enzyme and inhibitors were incubated at 37° C. for 15 minutes in a reaction volume of […] with the following components added to start the reaction: 50 mM Tris (pH 7.6), 1 mg/ml bovine serum albumin, 1 mM DTT, 2 mM CaCl2, 10 mM FAD, 10 mM tetrahydrobiopterin, […] L-arginine containing L-[2,3-3H]-arginine at 300 cpm/pmole and 1 mM NADPH. For constitutive NOS, 50 nM calmodulin was also added. The reaction was terminated by addition of cold stop buffer containing 10 mM EGTA, 100 mM HEPES, pH 5.5 and 1 mM citrulline. [3H]-Citrulline was separated by chromatography on Dowex 50W X-8 cation exchange resin and radioactivity determined with a liquid scintillation counter.

[4] abbreviates: printed as % only (inhibition not stated).
[5] abbreviates: conversion of [3H]-arginine to [3H]-citrulline, 37° C., 15 minutes.
[6] abbreviates: RAW264.7, nitrite production, RAW 264.7 cells, LPS-induced, 1 h at 37° C.
[7] abbreviates: conversion of [3H]-arginine to [3H]-citrulline, 50 nM calmodulin added, read-out: cNOS IC50.
[8] abbreviates: 100 μM compound, printed as % only (inhibition not stated).

T1 sequence (P29477 whole entry): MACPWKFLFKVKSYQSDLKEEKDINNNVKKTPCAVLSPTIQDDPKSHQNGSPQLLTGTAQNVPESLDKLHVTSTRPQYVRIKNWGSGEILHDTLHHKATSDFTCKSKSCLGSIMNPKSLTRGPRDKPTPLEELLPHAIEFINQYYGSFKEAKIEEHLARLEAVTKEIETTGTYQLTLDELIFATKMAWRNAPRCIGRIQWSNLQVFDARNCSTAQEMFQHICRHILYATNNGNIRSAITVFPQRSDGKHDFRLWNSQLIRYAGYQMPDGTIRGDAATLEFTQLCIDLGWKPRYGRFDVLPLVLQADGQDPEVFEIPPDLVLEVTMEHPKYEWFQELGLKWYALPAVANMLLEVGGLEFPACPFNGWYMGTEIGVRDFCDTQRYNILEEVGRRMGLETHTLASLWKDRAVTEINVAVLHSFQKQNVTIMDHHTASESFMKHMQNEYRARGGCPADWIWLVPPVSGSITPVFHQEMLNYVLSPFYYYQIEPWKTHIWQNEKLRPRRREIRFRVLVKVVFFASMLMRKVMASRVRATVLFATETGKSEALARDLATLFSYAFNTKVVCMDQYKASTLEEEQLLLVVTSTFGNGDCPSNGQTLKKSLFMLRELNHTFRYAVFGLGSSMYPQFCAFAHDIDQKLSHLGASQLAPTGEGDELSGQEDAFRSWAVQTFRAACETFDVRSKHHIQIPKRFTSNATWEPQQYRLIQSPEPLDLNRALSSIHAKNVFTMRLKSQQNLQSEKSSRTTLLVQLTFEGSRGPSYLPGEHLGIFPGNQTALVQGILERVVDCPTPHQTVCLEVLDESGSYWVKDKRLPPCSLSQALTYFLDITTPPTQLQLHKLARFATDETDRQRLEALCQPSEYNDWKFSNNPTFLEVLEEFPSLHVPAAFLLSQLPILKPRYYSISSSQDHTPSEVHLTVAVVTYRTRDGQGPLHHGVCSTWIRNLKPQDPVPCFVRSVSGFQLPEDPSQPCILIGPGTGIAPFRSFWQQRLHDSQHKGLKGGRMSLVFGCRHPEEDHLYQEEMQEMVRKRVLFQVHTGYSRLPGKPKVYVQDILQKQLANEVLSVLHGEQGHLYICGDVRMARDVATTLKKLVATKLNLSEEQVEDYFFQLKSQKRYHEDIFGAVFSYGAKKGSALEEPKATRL
T2 sequence (P29476 whole entry): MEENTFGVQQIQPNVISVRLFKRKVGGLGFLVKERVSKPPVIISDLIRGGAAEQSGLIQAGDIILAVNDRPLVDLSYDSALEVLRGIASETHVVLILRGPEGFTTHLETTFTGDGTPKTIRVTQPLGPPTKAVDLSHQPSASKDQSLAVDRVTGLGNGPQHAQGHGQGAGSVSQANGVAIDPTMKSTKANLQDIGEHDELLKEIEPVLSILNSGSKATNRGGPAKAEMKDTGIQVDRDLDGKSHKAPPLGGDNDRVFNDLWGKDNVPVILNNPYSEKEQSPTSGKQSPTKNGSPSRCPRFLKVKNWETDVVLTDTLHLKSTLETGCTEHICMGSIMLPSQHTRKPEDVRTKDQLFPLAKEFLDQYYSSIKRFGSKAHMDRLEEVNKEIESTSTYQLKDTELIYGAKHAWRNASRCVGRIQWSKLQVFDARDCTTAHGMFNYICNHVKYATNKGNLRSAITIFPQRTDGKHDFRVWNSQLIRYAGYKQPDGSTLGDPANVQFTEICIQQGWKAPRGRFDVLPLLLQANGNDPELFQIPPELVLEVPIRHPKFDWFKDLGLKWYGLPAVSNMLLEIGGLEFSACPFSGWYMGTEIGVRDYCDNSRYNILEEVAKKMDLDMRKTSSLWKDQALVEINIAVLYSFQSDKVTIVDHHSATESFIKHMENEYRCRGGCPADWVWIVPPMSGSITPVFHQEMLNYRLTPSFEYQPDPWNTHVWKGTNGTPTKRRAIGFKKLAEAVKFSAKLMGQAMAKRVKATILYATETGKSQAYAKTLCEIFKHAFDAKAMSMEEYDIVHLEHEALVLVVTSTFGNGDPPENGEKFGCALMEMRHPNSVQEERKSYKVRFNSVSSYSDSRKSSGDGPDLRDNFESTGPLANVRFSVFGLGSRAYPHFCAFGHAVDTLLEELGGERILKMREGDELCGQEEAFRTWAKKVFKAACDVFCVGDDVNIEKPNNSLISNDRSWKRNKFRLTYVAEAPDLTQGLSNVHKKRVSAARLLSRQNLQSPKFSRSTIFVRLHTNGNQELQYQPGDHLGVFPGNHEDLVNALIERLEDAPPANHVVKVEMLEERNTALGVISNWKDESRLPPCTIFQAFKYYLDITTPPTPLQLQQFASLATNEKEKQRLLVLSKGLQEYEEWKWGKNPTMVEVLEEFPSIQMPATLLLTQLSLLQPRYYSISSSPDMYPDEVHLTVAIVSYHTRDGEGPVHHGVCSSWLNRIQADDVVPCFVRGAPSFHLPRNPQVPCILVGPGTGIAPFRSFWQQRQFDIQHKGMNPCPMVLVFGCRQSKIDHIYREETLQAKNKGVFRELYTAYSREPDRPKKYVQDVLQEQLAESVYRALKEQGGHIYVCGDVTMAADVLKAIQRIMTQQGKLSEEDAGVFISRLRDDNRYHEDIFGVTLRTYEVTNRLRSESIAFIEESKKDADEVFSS

Regarding `Cl.N=C1CC(C(=O)O)CCN1` (stereo not shown), the melting point (commonly the temperature, or range, at which the solid turns liquid) was in the range of 230 to 234 °C. On the same count and under the same terms, for `CC1CCC(=N)NC1` (stereo not shown) (as salt: acetate) [Example 7, 2-Imino-5-methylpiperidine acetate] the value was 175 to 178 °C; for `CC1CCCNC1=N` (stereo not shown) (as salt: acetate) [Example 9, 2-imino-3-methylpiperidine acetate], 88 to 100 °C; for `CC1CC(=N)NC(C)C1` (stereo not shown) (as salt: acetate) [Example 10, 2-imino-4,6-dimethylpiperidine acetate], 163 to 166 °C. Same read-out and setting: to `N=C1NCCCC1O` (stereo not shown) (as salt: acetate) [Example 11, 2-Imino-3-hydroxypiperidine acetate] belongs 128 to 130 °C; to `CC1CCC(O)C(=N)N1` (stereo not shown) (as salt: acetate) [Example 277, 3-hydroxy-2-imino-6-methylpiperidine acetate], 158 to 160 °C.

`CN=C1CCCCCN1` (as salt: hydroiodid) showed a melting point of 169 to 171 °C.

In the case of `CN1CCCCC1=N` (as salt: hydroiodid), the melting point fell in the range of 157 to 158 °C. The same measure, in the same setting: to `CN1CCCCCC1=N` (as salt: hydroiodid) belongs 137 to 139 °C. Consider `Cl.N=C1NC[C@H]2CCCC[C@H]12` (relative stereo) [Example 173, (trans)-octahydro-2H-isoindol-1-imine, monohydrochloride], for which the “iNOS, % @ 10 μM” value in series [1] (setting [4]) came out at 42% @ 10 μM. With `NC1=NCCCCCC1` [Example 1, 2-Imino-heptamethyleneimine hydrochloride], the pIC50 in series [1] (setting [5]) was 5.68; in series [2] (RAW264.7, 1 h) it was 4.22; in series [3], 4.88.

Regarding `N=C1CCCCCCCN1` [Example 2, 2-Imino-octamethyleneimine hydrochloride], the pIC50 in series [1] (setting [5]) is 5.66; in series [2] (RAW264.7, 1 h), below 3.00; in series [3] it was 5.00.

Regarding `CC1CCNC1=N` (stereo not shown) [Example 4, 2-Imino-3-methyltetramethyleneimine hydriodide], the pIC50 is 5.34 in series [1] (setting [5]); 4.85 in series [2] (RAW264.7, 1 h); 5.62 in series [3]. In the case of `CC1CCC(N)=N1` (stereo not shown) [Example 5, 2-Imino-5-methyltetramethyleneimine hydriodide], the pIC50 in series [1] (setting [5]) was 5.49; in series [2] (setting [6]), 4.74; in series [3] it was 5.03. As for `CC1CCN=C(N)C1` (stereo not shown) [Example 6, 2-Imino-4-methylpiperidine acetate], in series [1], the pIC50 was 7.26.

Regarding `CC1CCC(N)=NC1` (stereo not shown) [Example 7, 2-Imino-5-methylpiperidine acetate], the pIC50 is 5.70 in series [1] (setting [5]) and 4.88 in series [3]. The like results for `CC1CCCN=C1N` (stereo not shown) [Example 9, 2-imino-3-methylpiperidine acetate] were, in that order, 5.83 and 5.70. With `CC1CC(N)=NC(C)C1` (stereo not shown) [Example 10, 2-imino-4,6-dimethylpiperidine acetate], the pIC50 in series [1] (setting [5]) is 7.37; in series [3] (setting [7]), 6.90.

On to `N=C1NCCCC1O` (stereo not shown) [Example 11, 2-Imino-3-hydroxypiperidine acetate], for which the figures for the pIC50 in series [1] (setting [5]) and in series [3] were 6.04 and 5.56, respectively. For `NC1=NCCC1` [Example 12, 2-iminopyrrolidine hydrochloride], the pIC50 is 5.29 in series [1]; 5.74 in series [2] (RAW264.7, 1 h); 4.49 in series [3]. For the compound `N=C1CCCCN1` [Example 13, 2-Iminopiperidine hydrochloride], the pIC50 in series [1] (setting [5]) was 6.22; in series [2] (RAW264.7, 1 h), 4.85; in series [3], 5.70.

With `NC1=NCCCN1` [Example 14, 2-Iminotetrahydropyrimidine hemihydrosulfate], the pIC50 in series [2] (RAW264.7, 1 h) is below 3.00; in series [3] (setting [7]), 4.64. In the case of `N=C1NCCN1` [Example 15, 2-Iminoimidazolidine], the “iNOS, % @ 10 μM” value in series [1] (setting [4]) was determined as 8% @ 10 μM.

Regarding `N=C1NCCS1` [Example 16, 2-Iminothiazolidine hydrochloride], in series [2] (setting [6]), the pIC50 was 5.37. Take `NC1=NCCCS1` [Example 17, 2-Imino-3-thiapiperidine hydrochloride]: the pIC50 in series [1] (setting [5]) was 6.10; in series [2] (RAW264.7, 1 h), 4.55; in series [3] it was 5.57. Consider `NC1=NCCCO1` [Example 18, hydrochloride], for which the pIC50 in series [1] (setting [5]) is 6.10; in series [2] (RAW264.7, 1 h), 5.22; in series [3], 5.22. Regarding `N=C1NCCO1` [Example 19, 2-Iminooxazolidine], the “iNOS, % @ 10 μM” value in series [1] (setting [4]) is on record as 42% @ 10 μM. As for `N=C1NCC(CCl)O1` (stereo not shown) [Example 20, 5-Chloromethyl-2-iminooxazolidine], the values for the pIC50 in series [1] (setting [5]), in series [2] (setting [6]) and in series [3] were 6.00, 3.80 and 5.30, respectively. On to `N=C1N[C@H]2[C@H](CS[C@H]2CCCCC(=O)O)N1` [Example 21, 2-Iminobiotin], for which the pIC50 in series [1] (setting [5]) is 4.40; in series [2] (RAW264.7, 1 h), below 3.00; in series [3] (setting [7]) it was 3.30. `CCOC(=O)CCCC[C@@H]1SC[C@@H]2NC(=N)NC21` (stereo partly shown) [Example 22, 2-Iminobiotin ethyl ester]: the pIC50 in series [1] (setting [5]) was 4.52; in series [2] (setting [6]), below 3.00; in series [3], 2.89. Regarding `CN1CCCNC1=N` [Example 23, 1-Methyl-2-iminotetrahydropyrimidine], in series [1] (setting [4]), the “iNOS, % @ 10 μM” value was found to be 41% @ 10 μM. In the case of `CCC1CCCCNC1=N` (stereo not shown) [Example 60, 3-ethyl-hexahydro-1H-azepin-2-imine, monohydrochloride], the pIC50 is 5.46 in series [2] (RAW264.7, 1 h) and 4.49 in series [3]. Turning to `CC1CCNC(=N)CC1` (stereo not shown) [Example 70, hexahydro-5-methyl-1H-azepin-2-imine, monohydrochloride], the pIC50 is 5.23 in series [1] (setting [5]); 4.62 in series [2] (RAW264.7, 1 h); 4.49 in series [3]. As to `C[C@@H]1CCCC(N)=NC1` [Example 90, hexahydro-6R-methyl-1H-azepin-2-imine, monohydrochloride], the pIC50 in series [1] (setting [5]) was 5.15; in series [3], 4.34. Regarding `C=CCC1CCCCNC1=N` (stereo not shown) [Example 107, hexahydro-3-(2-propenyl)-1H-azepin-2-imine, monohydrochloride], the pIC50 in series [1] (setting [5]) is 5.42; in series [2] (RAW264.7, 1 h), 4.82; in series [3], 3.47. Regarding `Cl.N=C1CCc2ccccc2N1` [Example 164, 1,2,3,4-tetrahydroquinolin-2-imine, monohydrochloride], the “iNOS, % @ 100 μM” value in series [1] (setting [8]) was 60% @ 100 μM. Also, the “cNOS, % @ 100 μM” value in series [3] (setting [8]) is recorded as 74% @ 100 μM. In series [3], `CC1(C)CCN=C(N)C1` [Example 170, 4,4-dimethylpiperidin-2-imine, monohydrochloride] had a pIC50 of 4.28. Turning to `CC1CN=C(N)C1` (stereo not shown) [Example 182, 4-methylpyrrolidin-2-imine, monohydrochloride], the results for the pIC50 in series [1] (setting [5]) and in series [3] were 5.85 and 4.85, respectively. With `NC1=NC(c2ccccc2)CCCC1` (stereo not shown) [Example 192, hexahydro-7-phenyl-1H-azepin-2-imine, monohydrochloride], the pIC50 is 4.92 in series [1]; 4.51 in series [2] (RAW264.7, 1 h); 3.75 in series [3]. Take `CCC1NC(=N)CC1C` (stereo not shown) [Example 217, 5-ethyl-4-methylpyrrolidin-2-imine, monohydrochloride]: the pIC50 is 6.77 in series [1] (setting [5]); 6.60 in series [2] (RAW264.7, 1 h); 5.80 in series [3].

The record behind these values is patent US6448286B1, “Imino pyrrolidine derivatives useful as nitric oxide synthase inhibitors” (G.D. Searle & Co., priority 1993, dated 2002).
